According to patent publication US20090312238A1, “Protection Against Oxidative Damage in Cells” (Florida Atlantic University, priority 2006, published 2009):

What was measured:
hMsrB3 = molecular target: T1, hMsrB3 (Homo sapiens, UniProt Q8IXL7); assay: Colorimetric assay for Msr activity based on the reduction of DABS-met(o); type: biochemical; conditions: for activity of chelating agent in place of EDTA with Zn-MT: EGTA 5 or 20 mM, deferoxamine 5 mM, zincon 500 μM
T1 construct: made in house; host or cells: BL21 E. coli
T1 sequence (Q8IXL7 33-192): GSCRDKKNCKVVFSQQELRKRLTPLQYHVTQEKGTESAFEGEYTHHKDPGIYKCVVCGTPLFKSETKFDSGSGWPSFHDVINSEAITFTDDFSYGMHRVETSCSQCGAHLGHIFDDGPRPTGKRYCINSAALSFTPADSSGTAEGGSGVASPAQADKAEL
Description: (§1) The reaction mixture (200 μl) to measure Msr activity contained 100 mM Tris-Cl pH 7.4, 100 nmoles of the indicated DABS-met(o) epimer (see Materials), either 15 mM DTT or the Trx regenerating system (Trx, 10 μg, Trx reductase, 2.4 μg, NADPH, 500 μM) and Msr enzyme as indicated. When the liver fractions (Zn-MT, T or T(o)) were tested, DTT was omitted and the Trx reducing system and 5 mM EDTA were added as indicated. Incubations were for 60 minutes at 37° C. unless noted otherwise. […] The quantitation of DABS-met formed employed a slight modification of an extraction procedure previously described by Etienne et al (Etienne, F., Resnick, L., Sagher, D., Brot, N. & Weissbach, H. (2003) Biochem Biophys Res Commun 312, 1005-1010) for the reduction of sulindac to sulindac sulfide by MsrA. The reactions were stopped by the addition of 200 μl of 1 M sodium acetate pH 6.0, followed by the addition of 100 μL of acetonitrile and 1 ml of benzene. After thorough shaking and centrifugation, the optical density of the benzene layer was read at 436 nm. […] Unless indicated otherwise, the results are presented as nmoles DABS-met formed in 60 minutes.

eMsrA = molecular target: T2, eMsrA (Escherichia coli, UniProt P0A744); assay: as above; type: biochemical, E. coli; conditions: for nmoles DABS-met: eMsrA 1.6 μg
T2 construct: made in house; host or cells: E. coli
T2 sequence (P0A744 whole entry): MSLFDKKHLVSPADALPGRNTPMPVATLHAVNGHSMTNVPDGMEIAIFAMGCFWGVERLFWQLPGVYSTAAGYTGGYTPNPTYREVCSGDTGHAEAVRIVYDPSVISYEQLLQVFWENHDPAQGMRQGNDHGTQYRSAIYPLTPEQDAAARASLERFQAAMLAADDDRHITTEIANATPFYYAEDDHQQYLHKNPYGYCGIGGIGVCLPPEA
Description: as §1

eMsrB [1] = molecular target: T3, eMsrB (Escherichia coli, UniProt P0A746); assay: as above; type: biochemical, E. coli
T3 construct: made in house; host or cells: E. coli
Description: as §1

bMsrA = molecular target: T4, bMsrA (Bos taurus, UniProt P54149); assay: as above; type: biochemical, bovine
T4 construct: made in house; host or cells: E. coli
T4 sequence (P54149 21-233): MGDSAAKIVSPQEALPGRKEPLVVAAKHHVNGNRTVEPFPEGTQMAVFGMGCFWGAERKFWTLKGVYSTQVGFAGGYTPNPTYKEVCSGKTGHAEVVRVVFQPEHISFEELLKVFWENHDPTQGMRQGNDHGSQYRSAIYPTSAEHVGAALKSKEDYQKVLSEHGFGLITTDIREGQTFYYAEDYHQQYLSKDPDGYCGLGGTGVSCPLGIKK
Description: as §1

hMsrB2 = molecular target: T5, hMsrB2 (Homo sapiens, UniProt Q9Y3D2); assay: as above; type: biochemical; conditions: for nmoles DABS-met: hMsrB2 2.7 μg
T5 construct: made in house; host or cells: E. coli
T5 sequence (Q9Y3D2 21-182): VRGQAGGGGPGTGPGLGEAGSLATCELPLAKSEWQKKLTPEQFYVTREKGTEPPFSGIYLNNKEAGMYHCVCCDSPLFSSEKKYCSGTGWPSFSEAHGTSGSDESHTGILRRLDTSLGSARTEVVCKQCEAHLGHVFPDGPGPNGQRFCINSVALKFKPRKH
Description: as §1

Zn-MT = conditions: appearance of free SH groups
Description: Briefly, purified Zn-MT was dialyzed against 10 mM HCl (pH 2.0) containing 150 mM NaCl for 12 hours at 4° C. The protein after dialysis is reduced, metal-free T and appears stable when left at pH 2.0. To study the activity of T in the Msr system, T was neutralized and added to the reaction mixtures immediately before the incubations were initiated. To oxidize T, 0.75 volumes of 50 mM Tris base were added to the T sample to bring the pH to 8.5. Under these conditions, approximately 50% of the sulfhydryls will become oxidized after 4 hours at room temperature or 2 hours at 37° C. With longer incubations, the T(o) started to precipitate.

Msr enzymes = assay: Msr activity assay, statements on the Msr enzymes as a group; type: biochemical; conditions: no Trx system or T
Description: as §1

MsrA = molecular target: T6, MsrA (Rattus norvegicus, UniProt Q923M1); assay: MsrA activity in cardiomyocytes, reduction of sulindac to sulindac sulfide; type: cell-based; conditions: for amount of product (sulindac sulfide): primary neonatal rat cardiomyocytes, 400 μM sulindac
T6 construct: endogenous in cells; host or cells: primary neonatal rat cardiomyocytes
T6 sequence (Q923M1 21-233): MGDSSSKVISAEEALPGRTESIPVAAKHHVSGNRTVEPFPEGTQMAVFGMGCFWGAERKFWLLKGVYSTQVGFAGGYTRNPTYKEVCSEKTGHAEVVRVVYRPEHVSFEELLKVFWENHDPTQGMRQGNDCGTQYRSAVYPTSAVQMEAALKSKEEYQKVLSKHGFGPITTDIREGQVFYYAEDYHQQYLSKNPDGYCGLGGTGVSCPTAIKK
Description: FIG. 10 is a graph showing selenocystamine (SeCm) can enhance MsrA activity in cardiomyocytes. Cardiomyocytes were incubated with 400 μM sulindac and indicated concentration of selenocystamine. Briefly, primary neonatal rat cardiomyocytes (approximately 10^6 cells per treatment) were incubated with sulindac and two different concentrations of selenocystamine. Sulindac is a substrate for MsrA, and the amount of the reduced product, sulindac sulfide, indicates the amount of MsrA activity. The amount of product is 2.7, 3.7 and 5.6 picomoles for 0, 5 μM and 50 μM selenocystamine, respectively. This amounts to a 37% and 107% stimulation.

eMsrB [2] = molecular target: T7, eMsrB (Escherichia coli, UniProt P0A746); assay: Colorimetric assay for Msr activity based on the reduction of DABS-met(o); type: biochemical, E. coli; remark: listed apart in the source
T7 construct: made in house; host or cells: E. coli
T7 sequence (P0A746 whole entry, looked up): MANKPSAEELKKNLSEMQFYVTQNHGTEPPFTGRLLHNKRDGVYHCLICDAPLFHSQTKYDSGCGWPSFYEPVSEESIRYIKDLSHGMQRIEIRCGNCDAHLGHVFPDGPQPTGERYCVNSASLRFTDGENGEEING
Description: as §1

T(o) = molecular target: T8, T(o) (Bos taurus, UniProt P68301); assay: Reduction of T(o) by Trx, oxidation of NADPH followed at 340 nm; type: biochemical, bovine; conditions: FIG. 4; 100 μM NADPH, 26 μg Trx, 6 μg TrxB, 28 μg partially-oxidized T
T8 construct: Fresh bovine liver was homogenized in 3 volumes of 50 mM Tris, pH 7.4; from tissue; host or cells: bovine liver
T8 sequence (P68301 whole entry): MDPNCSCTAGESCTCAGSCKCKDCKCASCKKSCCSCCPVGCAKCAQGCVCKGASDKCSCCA
Description: To study the reduction of T(o) by Trx, the reaction mixtures contained, in a total volume of 1 ml, 100 μM NADPH, 26 μg Trx, 6 μg TrxB and 28 μg of partially-oxidized T (see above). The oxidation of NADPH was followed at 340 nm at room temperature.

[3] = Table 1, DABS-met-S-(o), 15 mM DTT or Trx regenerating system, 60 minutes at 37° C.
[4] = Table 2, 20 nmoles Zn-MT with 5 mM EDTA, or 15 mM DTT
[5] = Table 1, eMsrB 2.7 μg, DABS-met-R-(o), 15 mM DTT or Trx regenerating system, 60 minutes at 37° C.
[6] = Table 1, bMsrA 2 μg, DABS-met-S-(o), 15 mM DTT or Trx regenerating system, 60 minutes at 37° C.
[7] = Table 1, DABS-met-R-(o), 15 mM DTT or Trx regenerating system, 60 minutes at 37° C.
[8] = Table 1, hMsrB3 2.3 μg, DABS-met-R-(o), 15 mM DTT or Trx regenerating system, 60 minutes at 37° C.
[9] = mammalian Trx and mammalian Trx reductase

## c1cnc2c(c1)ccc1cccnc12 [1,10-phenanthroline]
hMsrB3; 5 mM
  activity relative to EDTA, chelating agent in place of EDTA with Zn-MT: about 40%

## O[C@@H](CS)[C@@H](O)CS [DTT, reference compound]
eMsrA; [3]
  nmoles DABS-met: 46.2 nmol
eMsrA; [4]
  nmoles DABS-met: 45.7 nmol
eMsrB [1]; [5]
  nmoles DABS-met: 11.1 nmol
eMsrB [1]; Table 2, eMsrB 5.4 μg, 20 nmoles Zn-MT with 5 mM EDTA, or 15 mM DTT
  nmoles DABS-met: 27.8 nmol
bMsrA; [6]
  nmoles DABS-met: 30.0 nmol
bMsrA; Table 2, bMsrA 2.0 μg, 20 nmoles Zn-MT with 5 mM EDTA, or 15 mM DTT
  nmoles DABS-met: 38.9 nmol
hMsrB2; [7]
  nmoles DABS-met: 31.3 nmol
hMsrB2; [4]
  nmoles DABS-met: 27.1 nmol
hMsrB3; [8]
  nmoles DABS-met: 53.8 nmol
hMsrB3; Table 2, hMsrB3 2.3 μg, 20 nmoles Zn-MT with 5 mM EDTA, or 15 mM DTT
  nmoles DABS-met: 53.7 nmol
hMsrB3; experiment of Table 3, hMsrB3 2.3 μg, 15 mM DTT
  nmoles DABS-met formed: 52.7 nmol

## O=C(O)CN(CCN(CC(=O)O)CC(=O)O)CC(=O)O [EDTA, ethylenediaminetetraacetic acid]
hMsrB3; EDTA alone
  effect of EDTA by itself on hMsrB3 activity: no significant effect
hMsrB3; heated liver S-100 as reducing source
  levels of EDTA giving optimal activity: above 2.5 mM
Zn-MT
  time for removal of zinc from Zn-MT: less than 10 minutes
  zinc removed from Zn-MT: > 90%

## O=C(O)CN(CCOCCOCCN(CC(=O)O)CC(=O)O)CC(=O)O [EGTA]
hMsrB3
  activity of chelating agent in place of EDTA with Zn-MT: inactive

## NCC[Se][Se]CCN [SeC, selenocystamine]
eMsrA; E. coli enzymes
  stimulation by SeC above the Trx system alone: less than a twofold stimulation
eMsrA; complete Trx system, eMsrA
  stimulation by SeC: 10-20%
eMsrB [1]; E. coli enzymes
  stimulation by SeC above the Trx system alone: less than a twofold stimulation
eMsrB [1]; complete Trx system, eMsrB
  stimulation by SeC: 10-20%
bMsrA; complete Trx system, bMsrA
  increase of activity in the presence of SeC: more than 3 fold
hMsrB3; FIG. 7, NADPH and Trx reductase or T as primary reducing agent
  final concentration of SeC at maximal stimulation: 50 µM
Msr enzymes
  activity of SeC by itself: no activity
MsrA; 5 μM selenocystamine versus 0
  stimulation of MsrA activity: 37%
MsrA; 50 μM selenocystamine versus 0
  stimulation of MsrA activity: 107%
MsrA; 5 μM selenocystamine
  amount of product (sulindac sulfide): 3.7 picomoles
MsrA; 50 μM selenocystamine
  amount of product (sulindac sulfide): 5.6 picomoles

## CC(=O)N(O)CCCCCNC(=O)CCC(=O)N(O)CCCCCNC(=O)CCC(=O)N(O)CCCCCN [deferoxamine]
hMsrB3
  activity of chelating agent in place of EDTA with Zn-MT: inactive

## O=C(O)c1ccccc1NN=C(N=Nc1cc(S(=O)(=O)O)ccc1O)c1ccccc1 [zincon]
hMsrB3
  activity of chelating agent in place of EDTA with Zn-MT: inactive

## Trx: thioredoxin overexpressed and purified from E. coli; used as Trx regenerating system with Trx reductase and NADPH
eMsrA; Table 1, eMsrA
  Ratio Trx/DTT: 1.0
eMsrA; [3]
  nmoles DABS-met: 46.8 nmol
eMsrB [2]; Table 1, eMsrB
  Ratio Trx/DTT: 5.4
eMsrB [2]; [5]
  nmoles DABS-met: 60.3 nmol
bMsrA; Table 1, bMsrA
  Ratio Trx/DTT: 0.53
bMsrA; [6]
  nmoles DABS-met: 15.8 nmol
hMsrB2; Table 1, hMsrB2
  Ratio Trx/DTT: 0.03
hMsrB2; [7]
  nmoles DABS-met: 0.8 nmol
hMsrB2; hMsrB2
  activity with Trx relative to the activity seen with DTT: less than 10%
hMsrB3; Table 1, hMsrB3
  Ratio Trx/DTT: 0.03
hMsrB3; [8]
  nmoles DABS-met: 1.7 nmol
hMsrB3; Table 3 line 2, hMsrB3 2.3 μg, no T(o), Trx + NADPH + Trx reductase
  nmoles DABS-met: 2.4 nmol
hMsrB3; hMsrB3
  activity with Trx relative to the activity seen with DTT: less than 10%
T(o)
  oxidation of NADPH: dependent on Trx, Trx reductase and T(o)

B1: mammalian Trx: reduced mammalian Trx with mammalian Trx reductase; human Trx from Sigma, rat Trx reductase (TR3) (protein, UniProt P10599 2-105, looked up)
Thioredoxin: VKQIESKTAFQEALDAAGDKLVVVDFSATWCGPCKMIKPFFHSLSEKYSNVIFLEVDVDDCQDVASECEVKCMPTFQFFKKGQKVGEFSGANKEKLEATINELV
modifications: with rat Trx reductase
eMsrA; [9]
  use of Trx from either source: efficiently used
eMsrB [2]; [9]
  use of Trx from either source: efficiently used
hMsrB3; [9]
  activity with reduced mammalian Trx: very poor activity
